From US12447153B2, “HER2 mutation inhibitors” (Array BioPharma Inc., priority 2021, dated 2025)

What was measured:
[1] = target: ErbB2 WT (Homo sapiens (Human), UniProt P04626); assay: ErbB Enzyme Assay (HTRF KinEASE-TK), Assay 2; format: biochemical
[2] = target: ErbB2 with Exon 20 YVMA insertion (HER2-YVMA) (Homo sapiens (Human), UniProt P04626, INS775YVMA); assay: Cellular Phosphorylation Assay, Assay 4 (constitutive ErbB2 phosphorylation, NIH 3T3 cells); format: cell-based
[3] = target: EGFR wild type (EGFR WT) (Homo sapiens (Human), UniProt P00533); assay: Cellular Phosphorylation Assay, Assay 5 (EGF-stimulated EGFR phosphorylation, NIH 3T3 cells); format: cell-based
[4] = target: EGFR (Homo sapiens (Human), UniProt P00533); assay: ErbB Enzyme Assay (HTRF KinEASE-TK), Assay 3; format: biochemical
[5] = cellular ErbB2 YVMA phosphorylation
[6] = cellular EGFR WT phosphorylation, EGF-stimulated
[7] = EGF-stimulated EGFR WT phosphorylation

Sequence of ErbB2 WT (P04626 23-1255): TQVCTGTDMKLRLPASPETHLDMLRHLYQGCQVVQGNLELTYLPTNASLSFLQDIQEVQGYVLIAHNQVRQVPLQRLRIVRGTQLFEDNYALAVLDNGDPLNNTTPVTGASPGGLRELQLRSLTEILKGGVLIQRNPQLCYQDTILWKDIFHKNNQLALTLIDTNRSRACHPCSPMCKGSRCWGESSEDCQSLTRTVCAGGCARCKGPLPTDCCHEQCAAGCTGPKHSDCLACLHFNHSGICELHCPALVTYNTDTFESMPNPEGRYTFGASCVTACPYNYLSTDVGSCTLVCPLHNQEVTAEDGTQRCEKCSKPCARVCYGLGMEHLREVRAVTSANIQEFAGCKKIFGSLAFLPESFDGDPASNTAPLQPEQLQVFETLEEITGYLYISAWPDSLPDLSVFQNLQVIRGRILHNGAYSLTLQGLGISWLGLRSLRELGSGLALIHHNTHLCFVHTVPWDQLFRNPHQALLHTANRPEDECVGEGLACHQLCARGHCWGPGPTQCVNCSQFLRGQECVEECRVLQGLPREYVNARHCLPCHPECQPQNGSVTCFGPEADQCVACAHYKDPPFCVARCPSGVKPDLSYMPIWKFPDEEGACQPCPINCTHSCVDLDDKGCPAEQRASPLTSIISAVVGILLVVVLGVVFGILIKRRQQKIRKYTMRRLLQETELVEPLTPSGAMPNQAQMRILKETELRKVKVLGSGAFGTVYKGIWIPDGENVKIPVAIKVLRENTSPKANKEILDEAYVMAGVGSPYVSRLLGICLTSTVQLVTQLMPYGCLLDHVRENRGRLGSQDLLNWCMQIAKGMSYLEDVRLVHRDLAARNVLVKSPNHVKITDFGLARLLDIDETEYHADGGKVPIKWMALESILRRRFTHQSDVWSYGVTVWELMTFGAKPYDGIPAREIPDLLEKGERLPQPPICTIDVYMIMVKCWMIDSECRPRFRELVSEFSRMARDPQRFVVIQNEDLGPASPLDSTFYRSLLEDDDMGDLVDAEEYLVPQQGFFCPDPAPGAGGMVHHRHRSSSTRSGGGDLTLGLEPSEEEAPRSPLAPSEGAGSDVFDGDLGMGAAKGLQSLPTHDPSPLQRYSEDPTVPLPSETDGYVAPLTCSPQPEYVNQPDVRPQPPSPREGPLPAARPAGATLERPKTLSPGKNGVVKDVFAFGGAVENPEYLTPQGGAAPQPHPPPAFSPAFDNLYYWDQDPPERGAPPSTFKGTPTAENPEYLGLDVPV
Sequence of EGFR wild type (EGFR WT) (P00533 25-1210): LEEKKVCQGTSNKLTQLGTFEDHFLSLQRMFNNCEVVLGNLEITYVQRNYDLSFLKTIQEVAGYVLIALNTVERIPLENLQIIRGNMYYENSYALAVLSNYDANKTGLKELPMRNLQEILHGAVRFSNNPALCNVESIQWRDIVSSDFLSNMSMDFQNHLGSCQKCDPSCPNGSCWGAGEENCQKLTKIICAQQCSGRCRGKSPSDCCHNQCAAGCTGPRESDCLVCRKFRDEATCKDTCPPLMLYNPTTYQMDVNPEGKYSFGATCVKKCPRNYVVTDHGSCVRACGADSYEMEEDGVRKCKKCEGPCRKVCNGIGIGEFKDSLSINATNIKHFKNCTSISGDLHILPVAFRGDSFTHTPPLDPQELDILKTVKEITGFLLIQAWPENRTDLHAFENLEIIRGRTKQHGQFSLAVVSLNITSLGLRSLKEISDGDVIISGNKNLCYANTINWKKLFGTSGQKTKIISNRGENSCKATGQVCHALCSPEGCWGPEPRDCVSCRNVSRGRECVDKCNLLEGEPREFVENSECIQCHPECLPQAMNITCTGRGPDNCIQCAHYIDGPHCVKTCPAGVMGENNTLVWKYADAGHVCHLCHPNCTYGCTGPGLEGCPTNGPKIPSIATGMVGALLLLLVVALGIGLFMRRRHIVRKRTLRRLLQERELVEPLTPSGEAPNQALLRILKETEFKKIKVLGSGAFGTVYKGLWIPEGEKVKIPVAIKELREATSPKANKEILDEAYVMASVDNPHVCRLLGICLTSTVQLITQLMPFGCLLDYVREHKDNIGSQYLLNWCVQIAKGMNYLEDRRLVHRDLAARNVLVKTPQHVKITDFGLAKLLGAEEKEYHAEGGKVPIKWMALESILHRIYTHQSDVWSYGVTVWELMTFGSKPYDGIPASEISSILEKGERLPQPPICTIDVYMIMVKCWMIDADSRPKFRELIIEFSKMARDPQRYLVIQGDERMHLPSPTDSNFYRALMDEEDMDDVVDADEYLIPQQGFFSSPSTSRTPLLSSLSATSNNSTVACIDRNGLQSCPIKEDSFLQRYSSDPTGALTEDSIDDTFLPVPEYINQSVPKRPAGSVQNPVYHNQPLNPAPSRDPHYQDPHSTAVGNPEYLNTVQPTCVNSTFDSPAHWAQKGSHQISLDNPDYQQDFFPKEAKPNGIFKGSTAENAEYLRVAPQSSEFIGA
Sequence of EGFR (P00533 25-1210): as above
Sequence of ErbB2 with Exon 20 YVMA insertion (HER2-YVMA) (P04626 other isoform, or with tags, fused parts or gaps ins YVMA behind 775): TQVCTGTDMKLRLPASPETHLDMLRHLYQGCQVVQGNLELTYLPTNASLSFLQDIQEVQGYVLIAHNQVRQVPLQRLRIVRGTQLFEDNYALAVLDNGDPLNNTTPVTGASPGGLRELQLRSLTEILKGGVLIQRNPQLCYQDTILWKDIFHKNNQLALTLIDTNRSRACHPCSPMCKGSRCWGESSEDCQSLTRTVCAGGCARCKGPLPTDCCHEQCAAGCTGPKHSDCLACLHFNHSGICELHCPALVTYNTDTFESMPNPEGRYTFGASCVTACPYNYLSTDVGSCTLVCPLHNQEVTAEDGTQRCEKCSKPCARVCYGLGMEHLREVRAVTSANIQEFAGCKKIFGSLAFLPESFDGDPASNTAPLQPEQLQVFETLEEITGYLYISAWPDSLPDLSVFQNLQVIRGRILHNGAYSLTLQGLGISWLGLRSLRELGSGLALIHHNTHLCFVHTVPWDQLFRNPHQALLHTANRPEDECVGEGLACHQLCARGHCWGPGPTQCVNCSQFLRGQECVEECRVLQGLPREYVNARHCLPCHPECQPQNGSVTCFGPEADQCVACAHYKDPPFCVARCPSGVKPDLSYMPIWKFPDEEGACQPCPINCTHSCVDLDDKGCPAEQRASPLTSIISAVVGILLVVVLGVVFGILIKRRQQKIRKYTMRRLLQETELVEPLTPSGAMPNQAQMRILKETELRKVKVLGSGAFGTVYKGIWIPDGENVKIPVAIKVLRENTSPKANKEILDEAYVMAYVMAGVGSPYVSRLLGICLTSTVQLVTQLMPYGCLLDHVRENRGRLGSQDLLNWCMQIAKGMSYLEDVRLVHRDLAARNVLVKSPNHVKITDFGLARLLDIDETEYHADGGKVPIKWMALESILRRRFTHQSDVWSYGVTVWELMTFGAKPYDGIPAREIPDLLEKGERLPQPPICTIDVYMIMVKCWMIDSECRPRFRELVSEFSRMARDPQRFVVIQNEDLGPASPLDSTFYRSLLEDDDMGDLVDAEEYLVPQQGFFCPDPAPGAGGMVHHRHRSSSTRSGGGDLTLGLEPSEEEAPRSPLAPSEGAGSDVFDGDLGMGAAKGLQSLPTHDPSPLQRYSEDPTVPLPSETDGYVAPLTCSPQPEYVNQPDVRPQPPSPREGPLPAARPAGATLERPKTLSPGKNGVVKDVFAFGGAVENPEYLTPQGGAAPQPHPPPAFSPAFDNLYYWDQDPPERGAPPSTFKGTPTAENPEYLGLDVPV

Row | Structure (SMILES) | IC50 ([1]; ErbB2 WT enzyme assay) [nM] | IC50 [2, 5] [nM] | IC50 [3, 6] [nM] | IC50 ([4]; EGFR enzyme assay) [nM] | IC50 ([1]; ErbB2 WT enzyme) [nM] | IC50 ([2]; ErbB2 YVMA phosphorylation) [nM] | IC50 [3, 7] [nM] | IC50 ([4]; EGFR enzyme) [nM]
1 | C=CC(=O)N1CCN(c2ccc3ncnc(Nc4ccc(Oc5ccn6ncnc6c5)c(C)c4F)c3n2)C[C@@H]1C1CC1 [Example 285] | 65.8 | 34.1 | ≥ 5000 | ≥ 10000 | – | – | – | –
2 | C=CC(=O)N1CCC(c2nc3c(Nc4ccc(Oc5ccn6ncnc6c5)c(C)c4F)ncnc3cc2OC)CC1 [Example 155, 1-(4-(4-((4-([1,2,4]triazolo[1,5-a]pyridin-7-yloxy)-2-fluoro-3-methylphenyl)amino)-7-methoxypyrido[3,2-d]pyrimidin-6-yl)piperidin-1-yl)prop-2-en-1-one] | – | – | – | – | 9720 | 3950 | ≥ 5000 | ≥ 10000
3 | C=CC(=O)N1CCN(c2ccc3ncnc(Nc4ccc(Oc5ccn6ncnc6c5)c(Cl)c4F)c3n2)C[C@H]1C(C)C [Example 291] | 14.9 | 9.5 | 276 | 462 | – | – | – | –
4 | C=CC(=O)N1CC(c2ccc3ncnc(Nc4ccc(Oc5ccc6c(c5)ncn6C)c(C)c4F)c3n2)CCC12CC2 (stereo not drawn) [Example 197, 1-(6-(4-((2-fluoro-3-methyl-4-((1-methyl-1H-benzo[d]imidazol-5-yl)oxy)phenyl)amino)pyrido[3,2-d]pyrimidin-6-yl)-4-azaspiro[2.5]octan-4-yl)prop-2-en-1-one] | – | – | – | – | 21.1 | 35.2 | 853 | 650
5 | C=CC(=O)N1[C@@H]2CC[C@H]1C[C@@H](c1ccc3ncnc(Nc4cc(C)c(Oc5cnc6c(c5)ncn6C)cc4F)c3n1)C2 [Example 226, 1-((1R,3r,5S)-3-(4-((2-fluoro-5-methyl-4-((3-methyl-3H-imidazo[4,5-b]pyridin-6-yl)oxy)phenyl)amino)pyrido[3,2-d]pyrimidin-6-yl)-8-azabicyclo[3.2.1]octan-8-yl)prop-2-en-1-one] | – | – | – | – | 310 | 37.5 | ≥ 5000 | ≥ 10000
6 | C=CC(=O)N1[C@@H]2CC[C@H]1[C@H](c1ccc3ncnc(Nc4cc(C)c(Oc5ccn6ncnc6c5)cc4F)c3n1)C2 [Example 392] | 9.8 | 82 | ≥ 5000 | 1480 | – | – | – | –
7 | C=CC(=O)N1[C@H]2CC[C@@H]1[C@H](c1ccc3ncnc(Nc4cc(C)c(Oc5ccn6ncnc6c5)cc4F)c3n1)CC2 [Example 428] | 62.4 | 24.7 | 954 | 1480 | – | – | – | –
8 | C=CC(=O)N1CCCN(c2nc3c(Nc4ccc(Oc5ccn6ncnc6c5)c(C)c4F)ncnc3cc2OC)CC1 [Example 150, 1-(4-(4-((4-([1,2,4]triazolo[1,5-a]pyridin-7-yloxy)-2-fluoro-3-methylphenyl)amino)-7-methoxypyrido[3,2-d]pyrimidin-6-yl)-1,4-diazepan-1-yl)prop-2-en-1-one] | – | – | – | – | 16.6 | 47 | ≥ 5000 | 1550
9 | C=CC(=O)N1CCC(Oc2ccc3ncnc(Nc4cc(C)c(Oc5ccc6cn(C)nc6c5)cc4F)c3n2)CC1 [Example 5, 1-(4-((4-((2-fluoro-5-methyl-4-((2-methyl-2H-indazol-6-yl)oxy)phenyl)amino)pyrido[3,2-d]pyrimidin-6-yl)oxy)piperidin-1-yl)prop-2-en-1-one] | – | – | – | – | 2340 | 407 | ≥ 5000 | ≥ 10000
10 | C=CC(=O)N1CCN(c2ccc3ncnc(Nc4ccc(Oc5ccn6ncnc6c5)c(C)c4F)c3n2)C[C@@H]1C(C)(C)C [Example 295] | 153 | 79.3 | ≥ 5000 | 1030 | – | – | – | –
11 | C=CC(=O)N1CC(Sc2ccc3ncnc(Nc4ccc(Oc5ccc6c(c5)ncn6C)c(C)c4F)c3n2)C1 [Example 61, 1-(3-((4-((2-fluoro-3-methyl-4-((1-methyl-1H-benzo[d]imidazol-5-yl)oxy)phenyl)amino)pyrido[3,2-d]pyrimidin-6-yl)thio)azetidin-1-yl)prop-2-en-1-one] | – | – | – | – | 16.3 | 34.4 | 976 | 283
12 | C=CC(=O)N1CC[C@@H]2C[C@@H](c3ccc4ncnc(Nc5cc(C)c(Oc6ccn7ncnc7c6)cc5F)c4n3)C[C@@H]21 (single isomer, unassigned) [Example 224] | – | – | – | – | 58 | 91.3 | ≥ 5000 | 2290
13 | C=CC(=O)N1C[C@@H]2CC[C@H]1C[C@H]2c1ccc2ncnc(Nc3ccc(Oc4ccn5ncnc5c4)c(C)c3F)c2n1 (single isomer, unassigned) [Example 235] | – | – | – | – | 31 | 92.1 | ≥ 5000 | 1020
14 | C=CC(=O)N1CC[C@H]2C[C@@H]1CN2c1ccc2ncnc(Nc3ccc(Oc4cnc5c(c4)ncn5C)c(C)c3F)c2n1 [Example 237, 1-((1R,5S)-6-(4-((2-fluoro-3-methyl-4-((3-methyl-3H-imidazo[4,5-b]pyridin-6-yl)oxy)phenyl)amino)pyrido[3,2-d]pyrimidin-6-yl)-2,6-diazabicyclo[3.2.1]octan-2-yl)prop-2-en-1-one] | – | – | – | – | 1330 | 256 | ≥ 5000 | ≥ 10000
15 | C=CC(=O)N1CC[C@H](c2ccc3ncnc(Nc4ccc(Oc5ccn6ncnc6c5)c(C)c4F)c3n2)CC12CC2 (single isomer, unassigned) [Example 174] | – | – | – | – | 23.8 | 7.9 | 270 | 736
16 | C=CC(=O)N1CCC(Oc2nc3c(Nc4ccc(Oc5ccc6cn(C)nc6c5)c(C)c4F)ncnc3cc2OC)CC1 [Example 151, 1-(4-((4-((2-fluoro-3-methyl-4-((2-methyl-2H-indazol-6-yl)oxy)phenyl)amino)-7-methoxypyrido[3,2-d]pyrimidin-6-yl)oxy)piperidin-1-yl)prop-2-en-1-one] | – | – | – | – | 41.6 | 28.1 | 548 | 126
17 | C=CC(=O)N1[C@@H](C)CN(c2ccc3ncnc(Nc4cc(Cl)c(Oc5ccc6c(c5)ncn6C)cc4F)c3n2)C[C@@H]1C [Example 258] | 10000 | 99.9 | ≥ 5000 | ≥ 10000 | – | – | – | –
18 | C=CC(=O)N1C2CCC1CC(c1ccc3ncnc(Nc4ccc(Oc5ccc6c(c5)ncn6C)c(C)c4)c3n1)C2 (stereo not drawn) [Example 122, 1-(3-(4-((3-methyl-4-((1-methyl-1H-benzo[d]imidazol-5-yl)oxy)phenyl)amino)pyrido[3,2-d]pyrimidin-6-yl)-8-azabicyclo[3.2.1]octan-8-yl)prop-2-en-1-one] | – | – | – | – | 9.3 | 13 | ≥ 5000 | 3880
19 | C=CC(=O)N1CCCCC(c2ccc3ncnc(Nc4ccc(Oc5ccn6ncnc6c5)c(C)c4)c3n2)C1 (stereo not drawn) [Example 204, 1-(3-(4-((4-([1,2,4]triazolo[1,5-a]pyridin-7-yloxy)-3-methylphenyl)amino)pyrido[3,2-d]pyrimidin-6-yl)azepan-1-yl)prop-2-en-1-one] | – | – | – | – | 13.2 | 20.8 | 2940 | 900
20 | CC#CC(=O)N1CCN(c2ccc3ncnc(Nc4ccc(Oc5ccn6ncnc6c5)c(C)c4F)c3n2)C[C@@H]1C(F)F (racemic) [Example 168, rac-1-(4-(4-((4-([1,2,4]triazolo[1,5-a]pyridin-7-yloxy)-2-fluoro-3-methylphenyl)amino)pyrido[3,2-d]pyrimidin-6-yl)-2-(difluoromethyl)piperazin-1-yl)but-2-yn-1-one] | – | – | – | – | 74.3 | 16.5 | 356 | 1790

More lines, now with the values ahead:

Row | IC50 ([1]; ErbB2 WT enzyme assay) [nM] | IC50 [2, 5] [nM] | IC50 [3, 6] [nM] | IC50 ([4]; EGFR enzyme assay) [nM] | IC50 ([1]; ErbB2 WT enzyme) [nM] | IC50 ([2]; ErbB2 YVMA phosphorylation) [nM] | IC50 [3, 7] [nM] | IC50 ([4]; EGFR enzyme) [nM] | Structure (SMILES)
21 | 8.8 | 4.1 | 178 | 121 | – | – | – | – | C=CC(=O)N1CCC12CN(c1ccc3ncnc(Nc4ccc(Oc5ccn6ncnc6c5)c(Cl)c4F)c3n1)C2 [Example 360]
22 | 370 | 87.6 | 3440 | ≥ 10000 | – | – | – | – | C=CC(=O)N1CCN(c2ccc3ncnc(Nc4ccc(Oc5ccn6ncnc6c5)cc4C(F)(F)F)c3n2)CC1(C)C [Example 448]
23 | 50.8 | 10.2 | 276 | 419 | – | – | – | – | C=CC(=O)N1C[C@@H]2CC[C@H]1CN2c1ccc2ncnc(Nc3cc(C)c(Oc4cnc5c(c4)ncn5C)cc3F)c2n1 [Example 324]
24 | 23.8 | 13.4 | 312 | 892 | – | – | – | – | C=CC(=O)N1CCN(c2ccc3ncnc(Nc4cc(C)c(Oc5ccn6ncnc6c5)cc4F)c3n2)C[C@@H]1C(F)F (racemic) [Example 312]
25 | 220 | 235 | ≥ 5000 | ≥ 10000 | – | – | – | – | C=CC(=O)N1C[C@H](c2ccc3ncnc(Nc4cc(C)c(Oc5ccn6ncnc6c5)cc4F)c3n2)C[C@H]1C (mixture of isomers) [Example 386]
26 | 125 | 70.8 | ≥ 5000 | 2550 | – | – | – | – | C=CC(=O)N1C[C@H]2CC[C@@H]1C[C@H]2c1ccc2ncnc(Nc3ccc(Oc4cnc5c(c4)ncn5C)c(C)c3F)c2n1 [Example 423]
27 | 44 | 6.4 | 117 | 268 | – | – | – | – | C=CC(=O)N1CC[C@@H]2C[C@H]1CN2c1ccc2ncnc(Nc3ccc(Oc4cnc5c(c4)ncn5C)c(C)c3F)c2n1 [Example 317]
28 | 119 | 33.6 | ≥ 5000 | 5600 | – | – | – | – | C=CC(=O)N1C[C@H]2C[C@@H]1[C@H](c1ccc3ncnc(Nc4ccc(Oc5cnc6c(c5)ncn6C)c(C)c4F)c3n1)C2 [Example 418]
29 | 11.4 | 12.8 | 239 | 168 | – | – | – | – | C=CC(=O)N1CCN(c2ccc3ncnc(Nc4ccc(Oc5ccn6ncnc6c5)c(C)c4F)c3n2)C[C@@H]1C(F)F (racemic) [Example 297]
30 | 15.5 | 8.4 | 110 | 432 | – | – | – | – | C=CC(=O)N1CCN(c2ccc3ncnc(Nc4ccc(Oc5ccn6ncnc6c5)c(C)c4F)c3n2)CC12CCC2 [Example 308]
